From ChEMBL document CHEMBL1201862, “PubChem BioAssay data set” (2004)
Active and inactive are the calls of the source.

Key:
[1] = Late stage counterscreen for inhibitors of Trypanosoma brucei methionyl tRNA synthetase (MetRS): Luminescence-based cell-based high throughput dose response assay to identify compounds that are cytotoxic to Jurkat human T lymphocyte cells.; type: functional
[2] = Counterscreen for inhibitors of Trypanosoma brucei methionyl tRNA synthetase (MetRS): Luminescence-based cell-based high throughput dose response assay to identify compounds that are cytotoxic to Jurkat human T lymphocyte cells.; type: functional
[3] = target: T1, Methionyl-tRNA synthetase, putative (Trypanosoma brucei brucei, UniProt Q38C91); type: functional, Trypanosoma brucei brucei strain 927/4 GUTat10.1
T1 sequence (Q38C91 whole entry): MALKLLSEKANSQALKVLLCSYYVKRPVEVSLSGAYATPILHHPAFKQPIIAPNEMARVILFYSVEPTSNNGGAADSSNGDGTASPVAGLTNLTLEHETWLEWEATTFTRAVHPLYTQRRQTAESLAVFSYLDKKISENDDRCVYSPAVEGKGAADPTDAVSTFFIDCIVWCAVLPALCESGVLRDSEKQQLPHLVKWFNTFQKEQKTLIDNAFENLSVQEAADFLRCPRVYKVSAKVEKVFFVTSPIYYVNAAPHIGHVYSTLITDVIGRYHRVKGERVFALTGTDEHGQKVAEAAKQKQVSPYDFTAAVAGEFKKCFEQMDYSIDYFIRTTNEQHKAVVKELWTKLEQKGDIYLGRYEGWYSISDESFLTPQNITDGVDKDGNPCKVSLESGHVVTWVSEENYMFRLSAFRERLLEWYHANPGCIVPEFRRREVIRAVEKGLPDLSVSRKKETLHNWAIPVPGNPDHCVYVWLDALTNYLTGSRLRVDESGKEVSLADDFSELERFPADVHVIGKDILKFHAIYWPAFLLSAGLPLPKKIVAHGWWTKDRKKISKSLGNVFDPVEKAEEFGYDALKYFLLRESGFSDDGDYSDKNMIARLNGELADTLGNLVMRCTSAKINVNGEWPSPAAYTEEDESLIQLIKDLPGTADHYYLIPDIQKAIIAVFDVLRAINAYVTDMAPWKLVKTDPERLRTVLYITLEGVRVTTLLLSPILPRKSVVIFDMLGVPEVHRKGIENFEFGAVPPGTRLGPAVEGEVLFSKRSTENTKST

[4] = target: T1, Methionyl-tRNA synthetase, putative; type: functional, Trypanosoma brucei brucei strain 927/4 GUTat10.1; remark: listed apart in the source
[5] = toxicity toward HEK293 cells – cell-based, dry powder samples, cytotoxicity control, dose response (AID 720567); type: functional
[6] = target: Luciferin 4-monooxygenase (Photinus pyralis, UniProt P08659); assay: Counter Screen for Luciferase-based Assay Positives. [Related pubchem assays: 620, 618, 411 ]
HT-1080 = assay: HT1080 cell viability loss – fluorescence readout (AID 620); type: functional, cell-based; conditions: Homo sapiens
[7] = target: 1-phosphatidylinositol 4,5-bisphosphate phosphodiesterase gamma-1 (Homo sapiens, UniProt P19174); assay: Counterscreen for inhibitors of phospholipase C isozymes (PLC-B3): Fluorescence-based biochemical high throughput dose response assay to identify inhibitors of phospholipase C isozymes (PLC-gamma1).
[8] = target: 1-phosphatidylinositol 4,5-bisphosphate phosphodiesterase beta-3 (Homo sapiens, UniProt Q01970); assay: Fluorescence-based biochemical high throughput dose response assay to identify inhibitors of phospholipase C isozymes (PLC-B3).
[9] = blockers of HIV-1 envelope-mediated cell-cell fusion – cherry-pick, dose response (AID 652057); type: functional, cell-based
[10] = viability loss in CEM21 cells – cell-based, plate reader, dry powder, cytotoxicity control, dose response (AID 687026); type: functional
[11] = viability loss in CEM21 cells – cell-based, CellTiter-Glo luminescence, cherry-picked, cytotoxicity control for viral fusion inhibitor project, dose response (AID 652042); type: functional;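 note: potency for signal decrease meaning cytotoxicity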
[12] = inhibition of Env-driven cell fusion – HIV entry, plate reader, dry powder, dose response (AID 687023); type: functional, cell-based
[13] = inhibitors of non-replicating M. tuberculosis, dose response, luciferase, dry powder (AID 651619); type: functional; conditions: Mycobacterium tuberculosis
[14] = inhibitors of non-replicating M. tuberculosis, dose response, luciferase, dry powder (AID 651620); type: functional; conditions: Mycobacterium tuberculosis
[15] = HeLa cell viability loss – plate reader, dry powder, cytotoxicity control, dose response (AID 651946); type: functional, cell-based
[16] = growth inhibition of replicating M. tuberculosis, dose response, counter-screen, dry powder, IC90 (AID 651617); type: functional; conditions: Mycobacterium tuberculosis
[17] = HepG2 hepatoma cell viability loss – plate reader, dry powder, cytotoxicity control, dose response (AID 651947); type: functional, cell-based
Mu-type opioid receptor = Mu-type opioid receptor (Homo sapiens, UniProt P35372); assay: Late-stage results from the probe development effort to identify antagonists of OPRK1: luminescence-based cell-based dose response OPRM1 counterscreen, Set 2.; type: functional
[18] = target: Delta-type opioid receptor (Homo sapiens, UniProt P41143); assay: Late-stage results from the probe development effort to identify antagonists of OPRK1: fluorescence-based cell-based dose response OPRD1 counterscreen, Set 2.; type: functional
[19] = target: Sphingosine 1-phosphate receptor 1 (Homo sapiens, UniProt P21453); assay: Late-stage counterscreen for antagonists of kappa opioid receptor 1 (OPRK1): fluorescence-based cell-based dose response assay to identify antagonists of Sphingosine 1-Phosphate Receptor 1 (S1P1).; type: functional
[20] = target: Kappa-type opioid receptor (Homo sapiens, UniProt P41145); assay: Late-stage fluorescence-based cell-based dose response assay for antagonists of kappa opioid receptor 1 (OPRK1).; type: functional
[21] = viability loss in HEK293T cells – cell-based, CellTiter-Glo luminescence, dry powder, set 6, cytotoxicity control, dose response (AID 651949); type: functional; conditions: HEK293
[22] = blockers of FN fibrillogenesis by fibroblasts – AH1F cells, Alexa488-FN fluorescence, cherry-picks, dose response (AID 1035475); type: functional, cell-based
[23] = viability loss in HeLa cells – cytotoxicity control for MgcRacGAP inhibitor project, dose response (AID 624300); type: functional
[24] = target: Glucose-6-phosphate 1-dehydrogenase (Homo sapiens, UniProt P11413); assay: inhibition of Homo sapiens G6PD, dose series – biochemical, fluorescence, selectivity assay for P. falciparum G6PD inhibitor project, dose response (AID 504792); type: functional
[25] = viability loss in HepG2 liver cells – cell-based, ATP luminescence, cherry-pick, set 6, cytotoxicity control, dose response (AID 1053125); type: functional
A-375 = assay: MITF: Counter assay: A375 proliferation Measured in Cell-Based System Using Plate Reader - 2084-03_Inhibitor_Dose_DryPowder_Activity. [Related pubchem assays (depositor defined):AID488944]; type: functional; conditions: Homo sapiens
[26] = Counterscreen for activators of the function of SWI/SNF related, matrix associated, actin dependent regulator of chromatin, subfamily a, member 2 (SMARCA2, BRM): Luminescence-based cell-based high throughput dose response assay to identify non-selective compounds using the VP16 reporter assay.; type: functional
cells [27] = conditions: A549
[28] = target: SWI/SNF-related matrix-associated actin-dependent regulator of chromatin subfamily A member 2 (Homo sapiens, UniProt P51531); assay: Luminescence-based cell-based high throughput dose response assay to identify activators of the function of SWI/SNF related, matrix associated, actin dependent regulator of chromatin, subfamily a, member 2 (SMARCA2, BRM).; type: functional
cells [29] = conditions: HEK293
[30] = target: T2, Microphthalmia-associated transcription factor (Homo sapiens, UniProt O75030); assay: reducers of TRPM1 reporter luminescence, concentration series – cell-based, SK-MEL-5, cherry-picked, set 3, MITF inhibitor project, dose response (AID 493073); type: functional;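 note: SK-MEL-5 melanoma cells with luciferase driven by the MITF target TRPM1 promoter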
T2 sequence (O75030 whole entry): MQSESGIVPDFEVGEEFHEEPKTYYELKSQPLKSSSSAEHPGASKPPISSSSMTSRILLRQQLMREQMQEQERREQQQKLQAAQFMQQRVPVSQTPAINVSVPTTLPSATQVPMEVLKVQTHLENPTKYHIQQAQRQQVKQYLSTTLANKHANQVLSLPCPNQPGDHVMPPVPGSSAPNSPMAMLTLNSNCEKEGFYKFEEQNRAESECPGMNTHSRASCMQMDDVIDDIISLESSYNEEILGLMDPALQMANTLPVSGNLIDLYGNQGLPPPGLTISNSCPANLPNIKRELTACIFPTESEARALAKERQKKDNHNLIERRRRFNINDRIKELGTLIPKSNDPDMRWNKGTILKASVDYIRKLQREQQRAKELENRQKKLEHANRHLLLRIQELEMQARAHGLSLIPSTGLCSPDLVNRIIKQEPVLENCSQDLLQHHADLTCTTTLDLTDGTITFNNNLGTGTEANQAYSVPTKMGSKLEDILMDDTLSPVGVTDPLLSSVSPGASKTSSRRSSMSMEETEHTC

[31] = target: T3, Oxysterols receptor LXR-beta (Homo sapiens, UniProt P55055); assay: LXR agonists, Gal4 luciferase reporter, dose response, counter-screen for ssDAF-12 agonist project, cell-based, luminescence, HEK293, S. stercoralis campaign (AID 720737); type: functional; conditions: read-out: IC50 (the source's name)
T3 sequence (P55055 whole entry): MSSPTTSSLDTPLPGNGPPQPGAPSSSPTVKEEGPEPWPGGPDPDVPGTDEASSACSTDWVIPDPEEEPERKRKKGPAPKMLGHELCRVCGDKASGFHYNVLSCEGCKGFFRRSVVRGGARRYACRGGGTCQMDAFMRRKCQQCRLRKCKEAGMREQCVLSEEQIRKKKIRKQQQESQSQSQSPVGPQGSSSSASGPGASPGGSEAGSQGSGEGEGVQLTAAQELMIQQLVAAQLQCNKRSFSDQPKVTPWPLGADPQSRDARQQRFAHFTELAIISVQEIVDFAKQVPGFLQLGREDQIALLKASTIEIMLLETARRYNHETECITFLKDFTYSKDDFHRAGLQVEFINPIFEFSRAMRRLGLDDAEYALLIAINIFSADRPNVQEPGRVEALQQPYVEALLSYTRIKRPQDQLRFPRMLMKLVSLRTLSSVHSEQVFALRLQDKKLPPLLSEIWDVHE

[32] = Luminescence Cell-Based Dose Retest to Confirm Inhibitors of Cancer Stem Cells. [Related pubchem assays (depositor defined):AID2717, AID2721]; type: functional; conditions: Homo sapiens
Protein skinhead-1 = target: T4, Protein skinhead-1 (Caenorhabditis elegans, UniProt P34707); type: functional
T4 sequence (P34707 whole entry): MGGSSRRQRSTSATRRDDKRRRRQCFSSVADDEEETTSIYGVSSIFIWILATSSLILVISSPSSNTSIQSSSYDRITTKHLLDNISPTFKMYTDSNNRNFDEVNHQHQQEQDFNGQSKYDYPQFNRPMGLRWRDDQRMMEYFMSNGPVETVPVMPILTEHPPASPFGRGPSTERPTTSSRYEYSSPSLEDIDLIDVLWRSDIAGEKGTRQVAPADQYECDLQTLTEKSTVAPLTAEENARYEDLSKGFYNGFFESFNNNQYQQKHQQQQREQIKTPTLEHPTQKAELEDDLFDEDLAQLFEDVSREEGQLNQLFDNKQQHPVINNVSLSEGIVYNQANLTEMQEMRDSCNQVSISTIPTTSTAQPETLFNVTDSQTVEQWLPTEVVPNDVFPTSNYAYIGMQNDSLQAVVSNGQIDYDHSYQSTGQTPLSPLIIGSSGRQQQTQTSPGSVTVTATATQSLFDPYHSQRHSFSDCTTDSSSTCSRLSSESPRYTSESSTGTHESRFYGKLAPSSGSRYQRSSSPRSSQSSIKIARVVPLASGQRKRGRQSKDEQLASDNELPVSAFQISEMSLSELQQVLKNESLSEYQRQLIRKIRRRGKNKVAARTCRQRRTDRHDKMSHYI

[33] = target: T3, Oxysterols receptor LXR-beta; type: functional, cell-based
[34] = viability loss in HepG2 hepatoma cells – cell-based, ATP luminescence, cherry-pick, activator set 2, cytotoxicity control, dose response (AID 1053143); type: functional
[35] = Luminescence-based cell-based high throughput dose response assay to identify activators of the DAF-12 from the parasite S. stercoralis (ssDAF-12).; type: functional

Sequence of Luciferin 4-monooxygenase (P08659 whole entry): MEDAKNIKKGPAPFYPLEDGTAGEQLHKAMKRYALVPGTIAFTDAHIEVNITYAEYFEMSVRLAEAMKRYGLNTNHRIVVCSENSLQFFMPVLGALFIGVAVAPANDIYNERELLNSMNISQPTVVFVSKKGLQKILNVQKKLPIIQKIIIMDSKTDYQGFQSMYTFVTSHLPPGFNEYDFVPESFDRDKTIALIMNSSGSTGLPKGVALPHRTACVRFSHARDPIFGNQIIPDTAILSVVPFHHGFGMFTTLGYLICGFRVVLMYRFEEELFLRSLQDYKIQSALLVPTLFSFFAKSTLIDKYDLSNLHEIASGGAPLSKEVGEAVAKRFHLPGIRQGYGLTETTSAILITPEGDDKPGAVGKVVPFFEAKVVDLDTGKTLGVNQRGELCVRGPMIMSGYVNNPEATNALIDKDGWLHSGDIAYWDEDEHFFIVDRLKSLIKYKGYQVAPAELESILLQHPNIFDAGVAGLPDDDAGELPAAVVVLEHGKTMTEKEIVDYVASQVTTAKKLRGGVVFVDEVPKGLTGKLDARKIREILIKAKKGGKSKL
Sequence of Glucose-6-phosphate 1-dehydrogenase (P11413 whole entry): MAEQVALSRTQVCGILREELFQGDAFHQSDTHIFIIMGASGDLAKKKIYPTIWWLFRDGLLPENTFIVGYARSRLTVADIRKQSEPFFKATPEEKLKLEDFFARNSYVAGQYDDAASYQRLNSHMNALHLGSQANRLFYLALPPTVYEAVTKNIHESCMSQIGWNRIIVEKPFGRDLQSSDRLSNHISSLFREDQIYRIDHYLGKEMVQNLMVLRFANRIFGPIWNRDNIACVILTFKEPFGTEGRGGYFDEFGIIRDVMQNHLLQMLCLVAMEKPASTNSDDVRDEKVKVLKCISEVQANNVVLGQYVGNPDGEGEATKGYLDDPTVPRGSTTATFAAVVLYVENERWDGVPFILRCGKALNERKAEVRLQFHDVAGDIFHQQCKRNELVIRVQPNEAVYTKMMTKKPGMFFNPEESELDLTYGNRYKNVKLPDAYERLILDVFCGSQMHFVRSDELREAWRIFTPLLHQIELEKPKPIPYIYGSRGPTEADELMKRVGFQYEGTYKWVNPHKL
Sequence of SWI/SNF-related matrix-associated actin-dependent regulator of chromatin subfamily A member 2 (P51531 whole entry): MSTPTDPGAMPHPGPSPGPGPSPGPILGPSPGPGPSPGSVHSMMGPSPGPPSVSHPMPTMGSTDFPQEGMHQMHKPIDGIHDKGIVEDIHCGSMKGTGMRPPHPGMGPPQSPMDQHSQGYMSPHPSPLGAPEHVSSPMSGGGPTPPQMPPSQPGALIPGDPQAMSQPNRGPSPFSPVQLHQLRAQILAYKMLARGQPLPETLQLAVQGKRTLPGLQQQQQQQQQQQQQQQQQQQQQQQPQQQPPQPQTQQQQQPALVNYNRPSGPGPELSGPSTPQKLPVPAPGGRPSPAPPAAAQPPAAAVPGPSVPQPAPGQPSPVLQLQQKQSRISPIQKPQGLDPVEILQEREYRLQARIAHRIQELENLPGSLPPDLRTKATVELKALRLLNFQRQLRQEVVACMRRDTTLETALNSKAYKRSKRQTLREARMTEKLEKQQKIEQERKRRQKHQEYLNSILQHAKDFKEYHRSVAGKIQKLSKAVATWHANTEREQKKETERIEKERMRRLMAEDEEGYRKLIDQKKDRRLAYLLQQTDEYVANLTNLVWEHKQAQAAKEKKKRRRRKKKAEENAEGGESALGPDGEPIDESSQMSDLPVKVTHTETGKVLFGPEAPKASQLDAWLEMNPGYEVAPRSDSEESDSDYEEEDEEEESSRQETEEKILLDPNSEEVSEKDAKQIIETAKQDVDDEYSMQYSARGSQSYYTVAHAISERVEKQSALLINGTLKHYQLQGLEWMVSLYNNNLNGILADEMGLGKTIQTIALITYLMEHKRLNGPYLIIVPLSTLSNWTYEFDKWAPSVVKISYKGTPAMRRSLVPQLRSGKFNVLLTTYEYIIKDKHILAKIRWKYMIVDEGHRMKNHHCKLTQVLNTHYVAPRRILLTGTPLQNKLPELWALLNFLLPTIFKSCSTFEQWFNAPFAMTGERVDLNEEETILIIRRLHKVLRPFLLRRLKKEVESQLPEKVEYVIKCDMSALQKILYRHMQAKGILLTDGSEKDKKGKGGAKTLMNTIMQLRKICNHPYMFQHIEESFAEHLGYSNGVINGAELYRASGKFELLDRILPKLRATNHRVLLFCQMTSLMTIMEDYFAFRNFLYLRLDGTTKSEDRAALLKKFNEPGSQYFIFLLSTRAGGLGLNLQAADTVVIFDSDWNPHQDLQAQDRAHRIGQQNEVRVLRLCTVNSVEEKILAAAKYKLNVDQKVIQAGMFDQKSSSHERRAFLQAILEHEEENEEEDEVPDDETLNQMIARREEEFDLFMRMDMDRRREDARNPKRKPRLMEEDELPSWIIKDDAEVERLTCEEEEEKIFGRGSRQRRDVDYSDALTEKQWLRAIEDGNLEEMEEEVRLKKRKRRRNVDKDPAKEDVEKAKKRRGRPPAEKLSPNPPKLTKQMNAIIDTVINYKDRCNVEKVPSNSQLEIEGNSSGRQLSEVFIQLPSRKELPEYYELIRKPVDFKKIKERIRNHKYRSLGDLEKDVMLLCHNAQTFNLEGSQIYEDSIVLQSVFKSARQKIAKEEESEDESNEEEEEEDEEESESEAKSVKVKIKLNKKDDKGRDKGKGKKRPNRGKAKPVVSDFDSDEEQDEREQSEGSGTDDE
Sequence of Mu-type opioid receptor (P35372 whole entry): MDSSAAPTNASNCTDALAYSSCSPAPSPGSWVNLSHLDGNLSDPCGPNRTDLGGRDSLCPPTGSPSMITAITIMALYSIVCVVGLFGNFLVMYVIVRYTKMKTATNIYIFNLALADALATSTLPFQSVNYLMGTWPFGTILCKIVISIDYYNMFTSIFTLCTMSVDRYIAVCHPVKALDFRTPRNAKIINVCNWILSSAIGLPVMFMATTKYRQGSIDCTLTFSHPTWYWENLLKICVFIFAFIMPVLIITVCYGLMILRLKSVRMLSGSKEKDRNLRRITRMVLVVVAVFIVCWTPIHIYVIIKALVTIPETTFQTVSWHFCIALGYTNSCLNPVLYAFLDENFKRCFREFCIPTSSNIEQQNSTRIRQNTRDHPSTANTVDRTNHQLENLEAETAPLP
Sequence of 1-phosphatidylinositol 4,5-bisphosphate phosphodiesterase beta-3 (Q01970 whole entry, the tested form may be a part): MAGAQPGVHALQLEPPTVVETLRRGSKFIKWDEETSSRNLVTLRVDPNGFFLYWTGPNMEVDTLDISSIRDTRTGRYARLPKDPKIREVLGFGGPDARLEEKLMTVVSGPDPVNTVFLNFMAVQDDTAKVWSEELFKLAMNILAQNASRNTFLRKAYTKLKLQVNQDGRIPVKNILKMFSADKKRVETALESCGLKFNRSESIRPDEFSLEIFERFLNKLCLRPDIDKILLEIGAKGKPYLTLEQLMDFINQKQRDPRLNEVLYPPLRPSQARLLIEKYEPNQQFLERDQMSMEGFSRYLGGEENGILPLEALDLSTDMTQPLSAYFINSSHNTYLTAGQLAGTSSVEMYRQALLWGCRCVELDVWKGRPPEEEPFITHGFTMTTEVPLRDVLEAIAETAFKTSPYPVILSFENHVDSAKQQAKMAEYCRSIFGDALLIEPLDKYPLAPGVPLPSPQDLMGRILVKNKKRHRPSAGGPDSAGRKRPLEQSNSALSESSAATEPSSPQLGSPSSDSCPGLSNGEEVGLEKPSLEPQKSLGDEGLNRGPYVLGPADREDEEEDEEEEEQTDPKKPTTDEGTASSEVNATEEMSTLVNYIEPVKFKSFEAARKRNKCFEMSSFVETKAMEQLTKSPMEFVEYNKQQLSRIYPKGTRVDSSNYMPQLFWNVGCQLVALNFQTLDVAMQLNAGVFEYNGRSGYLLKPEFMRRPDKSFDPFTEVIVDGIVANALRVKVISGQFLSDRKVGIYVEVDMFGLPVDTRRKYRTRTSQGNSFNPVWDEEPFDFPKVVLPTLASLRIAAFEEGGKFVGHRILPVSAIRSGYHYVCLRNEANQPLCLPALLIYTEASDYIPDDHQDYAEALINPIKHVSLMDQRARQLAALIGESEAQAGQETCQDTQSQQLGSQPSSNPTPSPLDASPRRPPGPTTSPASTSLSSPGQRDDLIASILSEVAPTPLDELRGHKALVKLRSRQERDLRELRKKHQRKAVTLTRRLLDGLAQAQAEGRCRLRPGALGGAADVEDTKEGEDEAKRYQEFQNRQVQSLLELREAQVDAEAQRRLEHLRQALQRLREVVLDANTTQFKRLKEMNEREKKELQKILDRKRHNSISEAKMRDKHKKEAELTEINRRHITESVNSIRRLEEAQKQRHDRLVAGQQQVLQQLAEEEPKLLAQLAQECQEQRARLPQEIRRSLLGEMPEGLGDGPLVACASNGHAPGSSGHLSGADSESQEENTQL
Sequence of Delta-type opioid receptor (P41143 whole entry): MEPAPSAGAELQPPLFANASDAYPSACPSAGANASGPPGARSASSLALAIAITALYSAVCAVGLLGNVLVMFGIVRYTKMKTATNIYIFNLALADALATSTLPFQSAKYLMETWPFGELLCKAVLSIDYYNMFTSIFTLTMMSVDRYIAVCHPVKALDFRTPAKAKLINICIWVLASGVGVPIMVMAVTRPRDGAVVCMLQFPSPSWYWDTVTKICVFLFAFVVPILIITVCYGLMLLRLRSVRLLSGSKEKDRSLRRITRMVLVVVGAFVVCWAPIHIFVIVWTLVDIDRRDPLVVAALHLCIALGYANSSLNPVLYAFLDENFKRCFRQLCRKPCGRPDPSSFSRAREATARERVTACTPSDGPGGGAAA
Sequence of Kappa-type opioid receptor (P41145 whole entry): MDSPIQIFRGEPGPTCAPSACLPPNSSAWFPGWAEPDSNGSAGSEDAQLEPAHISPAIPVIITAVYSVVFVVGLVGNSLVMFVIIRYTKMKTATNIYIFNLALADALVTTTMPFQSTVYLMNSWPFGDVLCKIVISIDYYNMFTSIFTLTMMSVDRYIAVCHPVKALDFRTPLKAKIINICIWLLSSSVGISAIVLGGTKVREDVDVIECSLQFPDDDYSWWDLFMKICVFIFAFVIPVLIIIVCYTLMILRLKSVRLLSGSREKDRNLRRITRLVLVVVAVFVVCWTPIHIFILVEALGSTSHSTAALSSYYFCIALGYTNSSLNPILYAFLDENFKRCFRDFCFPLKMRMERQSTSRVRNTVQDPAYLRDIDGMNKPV

O=C(NCc1nc2ccccc2[nH]1)C1=C[C@H](c2ccc3c(c2)OCO3)C[C@H](OCCCCO)O1
IC50 [1]: > 83.3 µM (inactive)
IC50 [2]: 83.3 µM (inactive)
IC50 [3]: 3.35 µM (active)
IC50 [4]: 1.84 µM (active)

Cc1cc(NC(=O)CSc2nc(-c3ccco3)cc(C(F)(F)F)n2)no1
AC50 [5]: > 30 µM (inactive)
EC50 [6]: 1.59 µM (active)
EC50 (HT-1080): 6.41 µM (active)

O=C(NCc1ccc(F)cc1)c1cc2c(s1)CCCC2
IC50 [7]: > 123 µM (inactive)
IC50 [8]: > 123 µM (inactive)

C[C@@H]1CN([C@H](C)CO)C(=O)c2cccc(NS(=O)(=O)c3ccc(Cl)cc3)c2O[C@@H]1CN(C)Cc1ccc(Cl)c(Cl)c1
AC50 [9]: 1.45 µM (active)
AC50 [10]: 18.9 µM (active)
AC50 [11]: 52.9 µM (active)
AC50 [12]: 7.39 µM (active)

Clc1ccc(-c2nnc(SCc3ccccn3)o2)cc1
IC90 [13]: 4 µM (active)
IC90 [14]: 4 µM (active)
AC50 [15]: > 52 µM (inactive)
IC90 [16]: 62 µM (active)
AC50 [17]: 27.8 µM (active)

CN(C)c1cccc2c1c(NC(=O)Nc1ccc(OCc3ccccc3)cc1)nn2C
IC50 (Mu-type opioid receptor): 42.9 µM (inactive)
IC50 [18]: 4.38 µM (active)
IC50 [19]: 34.9 µM (inactive)
IC50 [20]: 1.82 µM (active)

Fc1ccc(Cn2cc(CSc3nnc(C4CCC4)o3)nn2)cc1
IC90 [13]: 4 µM (active)
IC90 [14]: 4 µM (active)
IC90 [16]: 250 µM (active)
AC50 [21]: 47.1 µM (active)

O=C(Nc1nc(-c2ccncc2)cs1)C1COc2ccccc2O1 (configuration not stated)
AC50 [22]: 0.512 µM (active)
CC50 [23]: 100 µM (active)
IC50 [24]: > 80 µM (inactive)

c1ccc2cc3c(NCCN4CCOCC4)ccnc3cc2c1
AC50 [25]: 12 µM (active)
AC50 (A-375): 21.2 µM (active)
EC50 [26]: > 91.2 µM (inactive)
AC50 (cells [27]): 6.11 µM (active)
EC50 [28]: 11.1 µM (inactive)
AC50 (cells [29]): 9.44 µM (active)
AC50 [30]: 2.91 µM (active)

Oc1cccc(/C=C/c2ccc3cccc(O)c3n2)c1
EC50 [31]: > 67.6 µM (inactive)
AC50 [32]: 3.91 µM (active)
IC50 (Protein skinhead-1): > 100 µM (inactive)
EC50 [33]: > 67.6 µM (inactive)
AC50 [34]: 26 µM (active)
IC50 [35]: > 67.6 µM (inactive)
